The values below come from patent US5162347A, “Piperidine derivatives and therapeutic and preventive agents for arrhythmia containing same” (Eisai Co., Ltd., priority 1987, dated 1992).

Data set [1] deals with isolated myocardium of guinea-pigs (right ventricular papillary muscles). The data set is described as follows: Effects on the action potential duration in the isolated myocardium of guinea-pigs. The data set is classed as cell-based, guinea-pigs (male, Hartley strain). The note with it: Cavia porcellus, 10 min, stimulated at 1 Hz, 37° C.; for APD90 prolongation (%) at 10 µM / inhibition at 10 µM: 10^-5 M, another 10 min; for inhibition at 10 µM / inhibition at 1 µM: read-out: Vmax inhibition (%); for APD90 prolongation (%) at 1 µM / inhibition at 1 µM: 10^-6 M, first 10 min. The protocol:
Right ventricular papillary muscles were isolated from male guinea-pigs of Hartley strain weighing 300 to 400 g and fixed at the bottom of an acrylic bath with pins. They were perfused with Tyrode solution kept at 37° C. and saturated with a mixture of 95% O2 and 5% CO2. The muscles were stimulated at 1 Hz with rectangular pulses of 1 msec duration and supramaximal voltage. Action potentials were recorded using conventional glass microelectrodes filled with 3M KCl. The duration of the action potential and the maximum velocity of the upstroke of the action potential (Vmax) were determined. Each of the test compounds was included in Tyrode solution at 10^-6 or 10^-5 M and perfused.
The test compounds shown in Example 1 were as follows. Sotalol, a beta-adrenoceptor antagonist was employed as the reference drug because this compound is known to prolong the duration of the myocardial action potential.
Results are shown below in terms of APD90 prolongation (%) and Vmax inhibition (%).

Data set [2] can be described thus: Acute toxicity test, intravenous injection in mice. The note with it: mouse, in vivo, male ddy mice weighing 20 to 30 g. The protocol: Acute toxicity tests of typical compounds (the above-mentioned compounds A and B) of the present invention were conducted by applying them to male ddy mice weighing 20 to 30 g by intravenous injection.
Acute toxicity tests of typical compounds (the above-mentioned compounds A to E) of the present invention were conducted by applying them to male ddy mice weighing 20 to 30 g by intravenous injection.

What is called inhibition is the change of the read-out against control, counted positive when it falls. For orientation: LD50 means the dose expected to kill half of the subjects tested. The low end stands for greater toxicity, the high end for lower toxicity.

For the compound `CC(C)NCC(O)c1ccc(NS(C)(=O)=O)cc1` (centres unmarked) [Sotalol, reference compound], in data set [1], the APD90 prolongation (%) at 10 µM turned out to be 7%, the inhibition at 10 µM was determined as 0%, the APD90 prolongation (%) at 1 µM came out at 0% and the inhibition at 1 µM was determined as 0%.
Take `CS(=O)(=O)Nc1ccc(SC2CCN(CCc3cccnc3)CC2)cc1` [compound (1) A]: in data set [1], the APD90 prolongation (%) at 10 µM is 20%, the inhibition at 10 µM stood at 0%, the APD90 prolongation (%) at 1 µM was 11% and the inhibition at 1 µM was 0%. The compound also had a median lethal dose (LD50) in data set [2] of 180 to 400 mg/kg.
`CS(=O)(=O)Nc1ccc([S+]([O-])C2CCN(CCc3cccnc3)CC2)cc1` (centres unmarked) [compound (1) B]: in data set [1], the APD90 prolongation (%) at 10 µM was 40%, the inhibition at 10 µM worked out at 0%, the APD90 prolongation (%) at 1 µM was found to be 14% and the inhibition at 1 µM was 0%. The compound further yielded a median lethal dose (LD50) in data set [2] of 180 to 400 mg/kg.
Consider `Cc1cccc(CCN(C)CC(=O)c2ccc(NS(C)(=O)=O)cc2)n1` [compound (2) A], for which, in data set [1], the APD90 prolongation (%) at 10 µM came out at 16%, the inhibition at 10 µM worked out at 0%, the APD90 prolongation (%) at 1 µM came to 12% and the inhibition at 1 µM was determined as 0%.
As to `Cc1cccc(CCN(C)CCC(=O)c2ccc(NS(C)(=O)=O)cc2)n1` [compound (2) B], in data set [1], the APD90 prolongation (%) at 10 µM is 19%, the inhibition at 10 µM was found to be 0%, the APD90 prolongation (%) at 1 µM turned out to be 18% and the inhibition at 1 µM was found to be 0%.
For the compound `Cc1cccc(CCN(C)CCCC(=O)c2ccc(NS(C)(=O)=O)cc2)n1` [compound (2) C], in data set [1], the APD90 prolongation (%) at 10 µM amounted to 31%, the inhibition at 10 µM was 0%, the APD90 prolongation (%) at 1 µM was 17% and the inhibition at 1 µM came out at 0%.
Take `CCN(CCCC(=O)c1ccc(NS(C)(=O)=O)cc1)CCc1cccc(C)n1` [compound (2) D]: in data set [1], the APD90 prolongation (%) at 10 µM was 31%, the inhibition at 10 µM turned out to be 0%, the APD90 prolongation (%) at 1 µM amounted to 17% and the inhibition at 1 µM was 0%.
As to `Cc1cccc(CCN(C)CCCCC(=O)c2ccc(NS(C)(=O)=O)cc2)n1` [compound (2) E], in data set [1], the APD90 prolongation (%) at 10 µM is 27%, the inhibition at 10 µM was determined as 0%, the APD90 prolongation (%) at 1 µM came out at 14% and the inhibition at 1 µM turned out to be 0%.
`CS(=O)(=O)Nc1ccc(C(CO)N2CCC(C(=O)c3ccc(F)cc3)CC2)cc1` (centres unmarked) [compound (3) A]: in data set [1], the APD90 prolongation (%) at 10 µM was 25%, the inhibition at 10 µM stood at 0%, the APD90 prolongation (%) at 1 µM amounted to 16% and the inhibition at 1 µM stood at 0%. For the same compound, the LD50 in data set [2] was in the range of 180 to 400 mg/kg.
For the compound `CS(=O)(=O)Nc1ccc(C(CO)N2CCC(C(=O)c3ccc(Cl)cc3)CC2)cc1` (centres unmarked) [compound (3) B], in data set [1], the APD90 prolongation (%) at 10 µM was determined as 11%, the inhibition at 10 µM turned out to be 0%, the APD90 prolongation (%) at 1 µM came out at 13% and the inhibition at 1 µM was found to be 0%. Moreover, in data set [2], the LD50 is 180 to 400 mg/kg.
